Assays:
RET = biological target: T1, RET (Homo sapiens, UniProt P07949); assay: Radiometric kinase panel; type: biochemical
T1 construct: either as full-length or enzymatically active fragments; purchased ProQinase GmbH (Reaction Biology)
Summary of the method: (§1)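 Activity was measured radiometrically from [gamma-33P]-ATP incorporation into substrate. The kinases were recombinant human GST- or His-tagged proteins, full-length or active fragments, expressed in Sf9 or E. coli. Compound in 10% DMSO was added before the enzyme/substrate mix, which started the reaction.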

CAMK2B = biological target: T2, CAMK2B (Homo sapiens, UniProt Q13554); assay: Radiometric kinase panel; type: biochemical
T2 construct: either as full-length or enzymatically active fragments; purchased ProQinase GmbH (Reaction Biology)
T2 sequence (Q13554 whole entry, the tested form may be a part): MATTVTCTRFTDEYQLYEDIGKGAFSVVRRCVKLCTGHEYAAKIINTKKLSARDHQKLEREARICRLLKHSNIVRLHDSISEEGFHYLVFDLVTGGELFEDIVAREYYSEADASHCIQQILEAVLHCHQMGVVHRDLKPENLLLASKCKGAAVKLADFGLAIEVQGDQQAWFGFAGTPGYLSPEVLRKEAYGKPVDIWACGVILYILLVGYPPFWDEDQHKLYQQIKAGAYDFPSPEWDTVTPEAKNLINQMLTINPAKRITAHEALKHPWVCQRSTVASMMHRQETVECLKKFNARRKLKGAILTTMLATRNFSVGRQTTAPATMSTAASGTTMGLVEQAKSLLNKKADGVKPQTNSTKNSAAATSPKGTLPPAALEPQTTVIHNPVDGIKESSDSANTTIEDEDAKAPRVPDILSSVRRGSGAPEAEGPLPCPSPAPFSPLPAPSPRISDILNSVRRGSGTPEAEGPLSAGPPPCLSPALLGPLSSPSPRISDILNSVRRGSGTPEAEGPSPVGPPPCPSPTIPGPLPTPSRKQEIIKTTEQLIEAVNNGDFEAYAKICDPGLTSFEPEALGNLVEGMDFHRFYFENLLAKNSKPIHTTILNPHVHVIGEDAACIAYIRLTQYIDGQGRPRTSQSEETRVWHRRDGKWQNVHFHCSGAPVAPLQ
Summary of the method: as §1

VEGFR3 = biological target: T3, VEGFR3 (Homo sapiens, UniProt P35916); assay: Radiometric kinase panel; type: biochemical
T3 construct: either as full-length or enzymatically active fragments; purchased ProQinase GmbH (Reaction Biology)
T3 sequence (P35916 25-1363): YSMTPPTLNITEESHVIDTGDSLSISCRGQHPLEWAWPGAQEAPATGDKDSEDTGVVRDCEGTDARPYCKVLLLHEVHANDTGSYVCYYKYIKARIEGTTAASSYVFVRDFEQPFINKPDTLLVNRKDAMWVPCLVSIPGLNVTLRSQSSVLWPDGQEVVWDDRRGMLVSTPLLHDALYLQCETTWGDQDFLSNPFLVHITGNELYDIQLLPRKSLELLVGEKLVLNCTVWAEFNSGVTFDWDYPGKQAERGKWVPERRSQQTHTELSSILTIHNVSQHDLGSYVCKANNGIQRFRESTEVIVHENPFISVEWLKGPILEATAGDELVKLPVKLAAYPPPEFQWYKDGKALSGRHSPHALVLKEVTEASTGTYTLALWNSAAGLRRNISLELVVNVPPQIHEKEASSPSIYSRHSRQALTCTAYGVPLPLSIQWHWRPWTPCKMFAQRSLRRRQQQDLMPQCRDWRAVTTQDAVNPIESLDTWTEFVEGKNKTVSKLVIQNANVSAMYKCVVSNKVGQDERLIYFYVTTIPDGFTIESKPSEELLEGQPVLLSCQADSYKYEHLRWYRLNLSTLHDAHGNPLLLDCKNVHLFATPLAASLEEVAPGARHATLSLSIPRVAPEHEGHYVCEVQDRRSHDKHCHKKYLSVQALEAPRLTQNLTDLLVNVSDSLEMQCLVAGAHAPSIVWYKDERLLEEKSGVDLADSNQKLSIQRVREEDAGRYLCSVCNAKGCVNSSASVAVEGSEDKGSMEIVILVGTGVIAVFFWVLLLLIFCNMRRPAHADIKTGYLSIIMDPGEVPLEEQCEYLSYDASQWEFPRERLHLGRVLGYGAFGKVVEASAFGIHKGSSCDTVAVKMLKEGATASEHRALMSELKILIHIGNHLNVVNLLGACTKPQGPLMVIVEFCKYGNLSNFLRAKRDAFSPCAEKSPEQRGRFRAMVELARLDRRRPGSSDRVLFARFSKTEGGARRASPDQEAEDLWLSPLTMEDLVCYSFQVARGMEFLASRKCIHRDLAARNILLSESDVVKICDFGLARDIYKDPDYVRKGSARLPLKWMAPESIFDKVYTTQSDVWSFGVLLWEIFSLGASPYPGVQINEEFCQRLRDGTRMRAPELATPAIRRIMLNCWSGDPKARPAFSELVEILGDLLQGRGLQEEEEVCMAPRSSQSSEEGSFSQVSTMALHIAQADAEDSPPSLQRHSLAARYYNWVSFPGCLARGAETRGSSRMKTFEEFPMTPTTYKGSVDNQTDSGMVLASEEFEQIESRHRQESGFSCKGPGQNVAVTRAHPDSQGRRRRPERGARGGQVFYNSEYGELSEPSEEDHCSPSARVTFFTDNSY
Summary of the method: as §1

CDK1/CycE1 = biological target: T4, CDK1/CycE1 (Homo sapiens, UniProt P06493); assay: Radiometric kinase panel; type: biochemical
T4 construct: either as full-length or enzymatically active fragments; purchased ProQinase GmbH (Reaction Biology); host or cells: Sf9 insect cells or E. coli
T4 sequence (P06493 whole entry, the tested form may be a part): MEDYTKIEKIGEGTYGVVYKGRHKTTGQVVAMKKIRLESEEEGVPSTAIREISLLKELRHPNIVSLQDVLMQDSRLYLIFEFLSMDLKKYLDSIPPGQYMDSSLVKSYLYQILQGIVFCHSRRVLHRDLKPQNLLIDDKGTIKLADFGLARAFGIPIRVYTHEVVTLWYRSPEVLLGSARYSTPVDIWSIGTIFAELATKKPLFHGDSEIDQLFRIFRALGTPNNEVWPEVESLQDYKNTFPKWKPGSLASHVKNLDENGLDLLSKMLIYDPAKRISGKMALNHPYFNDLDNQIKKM
T4 sequence (P24864 whole entry partner, the tested form may be a part): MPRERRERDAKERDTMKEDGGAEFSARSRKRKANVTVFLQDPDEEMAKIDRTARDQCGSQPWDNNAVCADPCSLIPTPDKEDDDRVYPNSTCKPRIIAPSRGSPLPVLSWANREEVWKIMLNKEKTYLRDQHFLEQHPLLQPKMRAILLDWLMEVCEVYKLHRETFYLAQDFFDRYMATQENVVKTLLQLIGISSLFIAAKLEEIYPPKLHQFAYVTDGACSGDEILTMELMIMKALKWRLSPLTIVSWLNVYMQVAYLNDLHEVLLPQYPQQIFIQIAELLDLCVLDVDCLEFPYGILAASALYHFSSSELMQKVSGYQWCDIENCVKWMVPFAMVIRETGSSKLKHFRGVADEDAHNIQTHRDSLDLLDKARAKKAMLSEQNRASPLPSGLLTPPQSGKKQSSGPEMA
Summary of the method: as §1

ARK5 = biological target: T5, ARK5 (Homo sapiens, UniProt O60285); assay: Radiometric kinase panel; type: biochemical
T5 construct: either as full-length or enzymatically active fragments; purchased ProQinase GmbH (Reaction Biology); host or cells: Sf9 insect cells or E. coli (not specified per kinase)
T5 sequence (O60285 whole entry, the tested form may be a part): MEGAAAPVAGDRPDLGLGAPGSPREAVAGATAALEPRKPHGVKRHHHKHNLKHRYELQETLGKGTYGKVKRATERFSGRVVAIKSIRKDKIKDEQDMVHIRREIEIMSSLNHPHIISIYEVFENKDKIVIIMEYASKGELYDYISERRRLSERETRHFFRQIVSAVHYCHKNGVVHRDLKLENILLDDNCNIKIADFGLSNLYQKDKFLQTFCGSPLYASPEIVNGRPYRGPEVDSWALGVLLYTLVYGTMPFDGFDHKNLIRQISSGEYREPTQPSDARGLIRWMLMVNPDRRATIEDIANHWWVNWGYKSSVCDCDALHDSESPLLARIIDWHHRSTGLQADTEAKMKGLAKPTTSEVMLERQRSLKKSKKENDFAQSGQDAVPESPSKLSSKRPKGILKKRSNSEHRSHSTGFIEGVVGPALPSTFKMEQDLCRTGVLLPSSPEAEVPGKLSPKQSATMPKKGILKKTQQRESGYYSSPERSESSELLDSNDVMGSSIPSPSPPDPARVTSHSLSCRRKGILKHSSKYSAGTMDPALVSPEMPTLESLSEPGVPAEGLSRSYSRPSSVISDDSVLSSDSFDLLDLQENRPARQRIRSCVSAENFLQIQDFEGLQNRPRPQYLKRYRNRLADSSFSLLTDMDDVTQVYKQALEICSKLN
Summary of the method: as §1

OVCAR-3 tumors = assay: OVCAR-3 mouse xenograft model of ovarian cancer; type: in vivo, NOD SCID female mice
Description: To test the efficacy of the compounds in vivo, studies were done in mouse xenografts. For all studies, general procedures for animal care and housing were done in accordance with the standard, Commission on Life Sciences, National Research Council, Standard operating procedures (SOPs) of Pharmaron, Inc (Beijing, China). The mice were kept in laminar flow rooms at constant temperature and humidity with 3-5 mice in each cage with bedding changed once weekly. Animals were housed in polycarbonate cage which is in the size of 300×180×150 mm^3 and in an environmentally monitored, well-ventilated room maintained at a temperature of (22±3° C.) and a relative humidity of 40%-70% on a 12:12 light:dark cycle with full spectrum lighting. Each animal was assigned an identification number; the following identification method will be applied. Cage cards were labeled with such information as study number, group, sex, dose, animal number, initiation date, study director and telephone number. Animals were identified by ear coding. Animals had free access to irradiation sterilized dry granule food during the entire study period except for time periods specified by the protocol.
For the OVCAR-3 study, NOD SCID female mice bearing the OVCAR-3 tumors were randomized into 5 groups (n=9 mice per group) 17 day post tumor implantation with an average tumor volume of 150 mm^3. Each group received either vehicle (3% DMSO, 97.0% (20% HP-β-CD in water) or 5.0, 10, 20 and 25.0 mg/kg of compound 4 biweekly (Monday, Thursday), a total of 4 doses were intravenously administered through the course of 14 day efficacy study. Immediately after every treatment dose, a saline flush of 0.1 mL were also administered. One last dose was intravenously administered on Day 15 for end of study PK plasma and PD tumor collections as indicated in the protocol. Tumor volumes were measured by caliper 2 times a week and body weights of all animals were recorded throughout the study.
Protocol-required measurements and observations were recorded manually onto excel spread sheets. All statistical tests were conducted, and the level of significance was set at 5% or P<0.05. The group means, standard deviation was calculated for all measurement parameters as study designed. Two-way RM ANOVA followed by Tukeys post hoc comparisons of the means was utilized for this study.

BRCA1 = assay: DDR gene expression (qPCR) in HCC70 cells; type: cell-based
Experimental: HCC70 (ATCC CRL-2315) cells in 96-well plate format were treated with either DMSO or compound 1 for 2 hours. After compound treatment was done for 2 hours, the plates were washed by PBS once, then fresh culture medium was added to the cells and cells were incubated for 4, 10, 22, 46, 70 hours respectively. At each time point (4, 10, 22, 46, 70 hours after 2 h washout) RNA extraction was done according to manufacturer's instructions as follows. RNA Extraction and qPCR was done using the Ambion Cell to CT kit (Cat #AM1728). Briefly, cells were removed from the incubator, washed once in PBS, lysed by adding 50 μL Lysis Solution from the kit, mixed 5 times and 5 μL Stop Solution was added to the well. All actions were done using RNAase and DNAase free labware.
The Reverse Transcription Reaction mix was then prepared. All reagents were kept in an ice-water bath during the whole operation. […]
The setting of QuantStudio®5 Real-Time qPCR System was shown in the following figure and the fluorescence gain was set at 1×.
Data Analysis was done according to the QuantStudio5 Software. Threshold of signal was calculated by QuantStudio 5 software using the default setting. The relative gene expression was evaluated using the following formulas: […]
Gene expression was detected using qPCR with the Taqman (Applied Biosystems, ThermoFisher Scientific; Carlsbad, Calif.) probe listed in Table 7. […]

T1 sequence (P07949 29-1114): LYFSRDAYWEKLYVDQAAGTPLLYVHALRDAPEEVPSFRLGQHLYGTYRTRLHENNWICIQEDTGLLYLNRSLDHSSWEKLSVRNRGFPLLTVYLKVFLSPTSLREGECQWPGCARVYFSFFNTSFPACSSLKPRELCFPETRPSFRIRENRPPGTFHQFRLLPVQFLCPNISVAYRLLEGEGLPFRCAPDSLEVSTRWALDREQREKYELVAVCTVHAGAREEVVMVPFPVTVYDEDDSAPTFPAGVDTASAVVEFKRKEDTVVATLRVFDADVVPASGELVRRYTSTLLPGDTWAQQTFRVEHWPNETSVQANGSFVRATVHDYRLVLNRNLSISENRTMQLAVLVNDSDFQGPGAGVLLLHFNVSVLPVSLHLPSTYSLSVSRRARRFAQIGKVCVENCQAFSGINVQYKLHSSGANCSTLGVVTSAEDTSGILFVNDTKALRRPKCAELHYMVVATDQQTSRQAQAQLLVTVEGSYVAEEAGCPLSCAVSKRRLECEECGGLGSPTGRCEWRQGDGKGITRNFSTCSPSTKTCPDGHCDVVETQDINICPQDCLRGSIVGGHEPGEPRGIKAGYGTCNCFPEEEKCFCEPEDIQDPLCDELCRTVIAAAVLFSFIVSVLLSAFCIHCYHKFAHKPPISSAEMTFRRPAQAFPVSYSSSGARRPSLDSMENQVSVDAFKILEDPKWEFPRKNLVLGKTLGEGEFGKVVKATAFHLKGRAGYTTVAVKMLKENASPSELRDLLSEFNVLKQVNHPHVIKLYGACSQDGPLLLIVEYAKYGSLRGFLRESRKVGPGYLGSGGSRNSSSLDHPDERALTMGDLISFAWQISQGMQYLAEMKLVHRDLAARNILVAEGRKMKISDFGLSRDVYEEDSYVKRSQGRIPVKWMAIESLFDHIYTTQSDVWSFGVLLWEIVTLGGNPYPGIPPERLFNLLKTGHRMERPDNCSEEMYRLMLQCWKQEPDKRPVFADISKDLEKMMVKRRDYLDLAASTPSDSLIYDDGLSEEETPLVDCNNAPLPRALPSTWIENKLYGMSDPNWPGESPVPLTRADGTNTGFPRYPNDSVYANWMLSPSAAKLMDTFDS

Compound | inhibition at 1 µM (RET) [%] | inhibition at 1 µM (CAMK2B) [%] | inhibition at 1 µM (VEGFR3) [%] | inhibition at 1 µM (CDK1/CycE1) [%] | inhibition at 1 µM (ARK5) [%] | T/C (OVCAR-3 tumors; 5.0 mg/kg intravenously biweekly for 14 days, compared to vehicle control) [%] | T/C (OVCAR-3 tumors; 10 mg/kg intravenously biweekly for 14 days, compared to vehicle control) [%] | T/C (OVCAR-3 tumors; 20 mg/kg intravenously biweekly for 14 days) [%] | T/C (OVCAR-3 tumors; 25 mg/kg intravenously biweekly for 14 days) [%] | levels of BRCA1 expression (BRCA1; 2 hours treatment then washout, qPCR) | time of strongest reduction in gene expression (BRCA1) (BRCA1; after treatment (post-washout)) [h]
C=CC(=O)Nc1ccc(C(=O)N2CC[C@@H](Nc3ncc(C#N)cn3)C2)cc1 [Compound 4, (R)-N-(4-(3-((5-cyanopyrimidin-2-yl)amino)pyrrolidine-1-carbonyl)phenyl)acrylamide] | 5 | -12 | -5 | 11 | 10 | 36 | 13 | −7 | −9 | – | –
C=CC(=O)Nc1ccc(C(=O)N2CC[C@@H](Nc3ncc(Cl)c(OC)n3)C2)cc1 [Compound 1, (R)-N-(4-(3-((5-chloro-4-methoxypyrimidin-2-yl)amino)pyrrolidine-1-carbonyl)phenyl)acrylamide] | – | – | – | – | – | – | – | – | – | reduction in levels of BRCA1 expression | 10
